The text below walks through data of patent US20200239530A1, “COMPOUNDS AND METHODS OF MODULATING PROTEIN DEGRADATION” (Vividion Therapeutics, Inc., priority 2017, published 2020).

What all share (assay): Cysteine liganding, probe competition
What all share (assay type): binding

For experiment [1], the target named is T1, HNRPLL Heterogeneous nuclear ribonucleoprotein L-like (Homo sapiens, UniProt Q8WVV9).
T1 construct: Cells were resuspended in cold PBS on ice and sonicated with a probe sonicator to achieve lysis; endogenous in cells
To be noted: HNRPLL Res# 464, uniprot Q8WVV9. The gist of the method: (§1)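 Lysates from probe-sonicated cells in PBS (5 mg/ml proteome) were exposed to compound for 1 hr at 25° C, then labelled with desthiobiotin iodoacetamide probe (10 mM stock) for 1 hr at 25° C. Probe-tagged peptides were streptavidin-enriched after trypsin digestion.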

The target of experiment [2] is T2, ZNF638 Zinc finger protein 638 (Homo sapiens, UniProt Q14966).
T2 construct: Cells were resuspended in cold PBS on ice and sonicated with a probe sonicator to achieve lysis; endogenous in cells
The gist of the method: as §1

Experiment [3] deals with T3, NT5DC2 5-nucleotidase domain-containing protein 2 (Homo sapiens, UniProt Q9H857).
T3 construct: Cells were resuspended in cold PBS on ice and sonicated with a probe sonicator to achieve lysis; endogenous in cells
In short, it runs like this:
as §1

For experiment [4], the target named is T4, SPAG5 Sperm-associated antigen 5 (Homo sapiens, UniProt Q96R06).
T4 construct: Cells were resuspended in cold PBS on ice and sonicated with a probe sonicator to achieve lysis; endogenous in cells
To be noted: SPAG5 Res# 382, uniprot Q96R06. The gist of the method:
as §1

Experiment [5] concerns the target T5, RNF213 E3 ubiquitin-protein ligase RNF213 (Homo sapiens, UniProt Q63HN8).
T5 construct: Cells were resuspended in cold PBS on ice and sonicated with a probe sonicator to achieve lysis; endogenous in cells
In short, it runs like this: as §1

The target of experiment [6] is T6, UBE4A Ubiquitin conjugation factor E4 A (Homo sapiens, UniProt Q14139).
T6 construct: Cells were resuspended in cold PBS on ice and sonicated with a probe sonicator to achieve lysis; endogenous in cells
To be noted: UBE4A Res# 79, uniprot Q14139. The gist of the method: as §1

For the next experiment, the target named is T7, VPRBP Protein VPRBP (Homo sapiens, UniProt Q9Y4B6).
T7 construct: Cells were resuspended in cold PBS on ice and sonicated with a probe sonicator to achieve lysis; endogenous in cells
The gist of the method: as §1

The target of experiment [7] is T8, GCN1L1 Translational activator GCN1 (Homo sapiens, UniProt Q92616).
T8 construct: 200 μL of lysate containing 5 mg/ml proteome was treated with 2 μL of 100× compound stock; endogenous in cells
In short, it runs like this:
as §1

The target of experiment [8] is T9, RNF2 E3 ubiquitin-protein ligase RING2 (Homo sapiens, UniProt Q99496).
T9 construct: Cells were resuspended in cold PBS on ice and sonicated with a probe sonicator to achieve lysis; endogenous in cells
T9 sequence (Q99496 1-336): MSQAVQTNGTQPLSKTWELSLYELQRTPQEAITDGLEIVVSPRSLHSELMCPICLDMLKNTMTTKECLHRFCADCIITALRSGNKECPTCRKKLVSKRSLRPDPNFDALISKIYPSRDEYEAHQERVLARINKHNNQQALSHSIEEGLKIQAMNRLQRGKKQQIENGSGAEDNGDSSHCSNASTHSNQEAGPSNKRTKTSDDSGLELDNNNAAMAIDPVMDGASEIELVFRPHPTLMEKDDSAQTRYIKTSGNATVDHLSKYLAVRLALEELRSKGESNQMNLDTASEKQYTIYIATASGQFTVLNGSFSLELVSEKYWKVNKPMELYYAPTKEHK
The gist of the method:
as §1

Experiment [9] concerns the target T10, CTSC Dipeptidyl peptidase 1 (Homo sapiens, UniProt P53634).
T10 construct: 200 μL of lysate containing 5 mg/ml proteome was treated with 2 μL of 100× compound stock; endogenous in cells
The gist of the method: as §1

T5 sequence (Q63HN8 whole entry): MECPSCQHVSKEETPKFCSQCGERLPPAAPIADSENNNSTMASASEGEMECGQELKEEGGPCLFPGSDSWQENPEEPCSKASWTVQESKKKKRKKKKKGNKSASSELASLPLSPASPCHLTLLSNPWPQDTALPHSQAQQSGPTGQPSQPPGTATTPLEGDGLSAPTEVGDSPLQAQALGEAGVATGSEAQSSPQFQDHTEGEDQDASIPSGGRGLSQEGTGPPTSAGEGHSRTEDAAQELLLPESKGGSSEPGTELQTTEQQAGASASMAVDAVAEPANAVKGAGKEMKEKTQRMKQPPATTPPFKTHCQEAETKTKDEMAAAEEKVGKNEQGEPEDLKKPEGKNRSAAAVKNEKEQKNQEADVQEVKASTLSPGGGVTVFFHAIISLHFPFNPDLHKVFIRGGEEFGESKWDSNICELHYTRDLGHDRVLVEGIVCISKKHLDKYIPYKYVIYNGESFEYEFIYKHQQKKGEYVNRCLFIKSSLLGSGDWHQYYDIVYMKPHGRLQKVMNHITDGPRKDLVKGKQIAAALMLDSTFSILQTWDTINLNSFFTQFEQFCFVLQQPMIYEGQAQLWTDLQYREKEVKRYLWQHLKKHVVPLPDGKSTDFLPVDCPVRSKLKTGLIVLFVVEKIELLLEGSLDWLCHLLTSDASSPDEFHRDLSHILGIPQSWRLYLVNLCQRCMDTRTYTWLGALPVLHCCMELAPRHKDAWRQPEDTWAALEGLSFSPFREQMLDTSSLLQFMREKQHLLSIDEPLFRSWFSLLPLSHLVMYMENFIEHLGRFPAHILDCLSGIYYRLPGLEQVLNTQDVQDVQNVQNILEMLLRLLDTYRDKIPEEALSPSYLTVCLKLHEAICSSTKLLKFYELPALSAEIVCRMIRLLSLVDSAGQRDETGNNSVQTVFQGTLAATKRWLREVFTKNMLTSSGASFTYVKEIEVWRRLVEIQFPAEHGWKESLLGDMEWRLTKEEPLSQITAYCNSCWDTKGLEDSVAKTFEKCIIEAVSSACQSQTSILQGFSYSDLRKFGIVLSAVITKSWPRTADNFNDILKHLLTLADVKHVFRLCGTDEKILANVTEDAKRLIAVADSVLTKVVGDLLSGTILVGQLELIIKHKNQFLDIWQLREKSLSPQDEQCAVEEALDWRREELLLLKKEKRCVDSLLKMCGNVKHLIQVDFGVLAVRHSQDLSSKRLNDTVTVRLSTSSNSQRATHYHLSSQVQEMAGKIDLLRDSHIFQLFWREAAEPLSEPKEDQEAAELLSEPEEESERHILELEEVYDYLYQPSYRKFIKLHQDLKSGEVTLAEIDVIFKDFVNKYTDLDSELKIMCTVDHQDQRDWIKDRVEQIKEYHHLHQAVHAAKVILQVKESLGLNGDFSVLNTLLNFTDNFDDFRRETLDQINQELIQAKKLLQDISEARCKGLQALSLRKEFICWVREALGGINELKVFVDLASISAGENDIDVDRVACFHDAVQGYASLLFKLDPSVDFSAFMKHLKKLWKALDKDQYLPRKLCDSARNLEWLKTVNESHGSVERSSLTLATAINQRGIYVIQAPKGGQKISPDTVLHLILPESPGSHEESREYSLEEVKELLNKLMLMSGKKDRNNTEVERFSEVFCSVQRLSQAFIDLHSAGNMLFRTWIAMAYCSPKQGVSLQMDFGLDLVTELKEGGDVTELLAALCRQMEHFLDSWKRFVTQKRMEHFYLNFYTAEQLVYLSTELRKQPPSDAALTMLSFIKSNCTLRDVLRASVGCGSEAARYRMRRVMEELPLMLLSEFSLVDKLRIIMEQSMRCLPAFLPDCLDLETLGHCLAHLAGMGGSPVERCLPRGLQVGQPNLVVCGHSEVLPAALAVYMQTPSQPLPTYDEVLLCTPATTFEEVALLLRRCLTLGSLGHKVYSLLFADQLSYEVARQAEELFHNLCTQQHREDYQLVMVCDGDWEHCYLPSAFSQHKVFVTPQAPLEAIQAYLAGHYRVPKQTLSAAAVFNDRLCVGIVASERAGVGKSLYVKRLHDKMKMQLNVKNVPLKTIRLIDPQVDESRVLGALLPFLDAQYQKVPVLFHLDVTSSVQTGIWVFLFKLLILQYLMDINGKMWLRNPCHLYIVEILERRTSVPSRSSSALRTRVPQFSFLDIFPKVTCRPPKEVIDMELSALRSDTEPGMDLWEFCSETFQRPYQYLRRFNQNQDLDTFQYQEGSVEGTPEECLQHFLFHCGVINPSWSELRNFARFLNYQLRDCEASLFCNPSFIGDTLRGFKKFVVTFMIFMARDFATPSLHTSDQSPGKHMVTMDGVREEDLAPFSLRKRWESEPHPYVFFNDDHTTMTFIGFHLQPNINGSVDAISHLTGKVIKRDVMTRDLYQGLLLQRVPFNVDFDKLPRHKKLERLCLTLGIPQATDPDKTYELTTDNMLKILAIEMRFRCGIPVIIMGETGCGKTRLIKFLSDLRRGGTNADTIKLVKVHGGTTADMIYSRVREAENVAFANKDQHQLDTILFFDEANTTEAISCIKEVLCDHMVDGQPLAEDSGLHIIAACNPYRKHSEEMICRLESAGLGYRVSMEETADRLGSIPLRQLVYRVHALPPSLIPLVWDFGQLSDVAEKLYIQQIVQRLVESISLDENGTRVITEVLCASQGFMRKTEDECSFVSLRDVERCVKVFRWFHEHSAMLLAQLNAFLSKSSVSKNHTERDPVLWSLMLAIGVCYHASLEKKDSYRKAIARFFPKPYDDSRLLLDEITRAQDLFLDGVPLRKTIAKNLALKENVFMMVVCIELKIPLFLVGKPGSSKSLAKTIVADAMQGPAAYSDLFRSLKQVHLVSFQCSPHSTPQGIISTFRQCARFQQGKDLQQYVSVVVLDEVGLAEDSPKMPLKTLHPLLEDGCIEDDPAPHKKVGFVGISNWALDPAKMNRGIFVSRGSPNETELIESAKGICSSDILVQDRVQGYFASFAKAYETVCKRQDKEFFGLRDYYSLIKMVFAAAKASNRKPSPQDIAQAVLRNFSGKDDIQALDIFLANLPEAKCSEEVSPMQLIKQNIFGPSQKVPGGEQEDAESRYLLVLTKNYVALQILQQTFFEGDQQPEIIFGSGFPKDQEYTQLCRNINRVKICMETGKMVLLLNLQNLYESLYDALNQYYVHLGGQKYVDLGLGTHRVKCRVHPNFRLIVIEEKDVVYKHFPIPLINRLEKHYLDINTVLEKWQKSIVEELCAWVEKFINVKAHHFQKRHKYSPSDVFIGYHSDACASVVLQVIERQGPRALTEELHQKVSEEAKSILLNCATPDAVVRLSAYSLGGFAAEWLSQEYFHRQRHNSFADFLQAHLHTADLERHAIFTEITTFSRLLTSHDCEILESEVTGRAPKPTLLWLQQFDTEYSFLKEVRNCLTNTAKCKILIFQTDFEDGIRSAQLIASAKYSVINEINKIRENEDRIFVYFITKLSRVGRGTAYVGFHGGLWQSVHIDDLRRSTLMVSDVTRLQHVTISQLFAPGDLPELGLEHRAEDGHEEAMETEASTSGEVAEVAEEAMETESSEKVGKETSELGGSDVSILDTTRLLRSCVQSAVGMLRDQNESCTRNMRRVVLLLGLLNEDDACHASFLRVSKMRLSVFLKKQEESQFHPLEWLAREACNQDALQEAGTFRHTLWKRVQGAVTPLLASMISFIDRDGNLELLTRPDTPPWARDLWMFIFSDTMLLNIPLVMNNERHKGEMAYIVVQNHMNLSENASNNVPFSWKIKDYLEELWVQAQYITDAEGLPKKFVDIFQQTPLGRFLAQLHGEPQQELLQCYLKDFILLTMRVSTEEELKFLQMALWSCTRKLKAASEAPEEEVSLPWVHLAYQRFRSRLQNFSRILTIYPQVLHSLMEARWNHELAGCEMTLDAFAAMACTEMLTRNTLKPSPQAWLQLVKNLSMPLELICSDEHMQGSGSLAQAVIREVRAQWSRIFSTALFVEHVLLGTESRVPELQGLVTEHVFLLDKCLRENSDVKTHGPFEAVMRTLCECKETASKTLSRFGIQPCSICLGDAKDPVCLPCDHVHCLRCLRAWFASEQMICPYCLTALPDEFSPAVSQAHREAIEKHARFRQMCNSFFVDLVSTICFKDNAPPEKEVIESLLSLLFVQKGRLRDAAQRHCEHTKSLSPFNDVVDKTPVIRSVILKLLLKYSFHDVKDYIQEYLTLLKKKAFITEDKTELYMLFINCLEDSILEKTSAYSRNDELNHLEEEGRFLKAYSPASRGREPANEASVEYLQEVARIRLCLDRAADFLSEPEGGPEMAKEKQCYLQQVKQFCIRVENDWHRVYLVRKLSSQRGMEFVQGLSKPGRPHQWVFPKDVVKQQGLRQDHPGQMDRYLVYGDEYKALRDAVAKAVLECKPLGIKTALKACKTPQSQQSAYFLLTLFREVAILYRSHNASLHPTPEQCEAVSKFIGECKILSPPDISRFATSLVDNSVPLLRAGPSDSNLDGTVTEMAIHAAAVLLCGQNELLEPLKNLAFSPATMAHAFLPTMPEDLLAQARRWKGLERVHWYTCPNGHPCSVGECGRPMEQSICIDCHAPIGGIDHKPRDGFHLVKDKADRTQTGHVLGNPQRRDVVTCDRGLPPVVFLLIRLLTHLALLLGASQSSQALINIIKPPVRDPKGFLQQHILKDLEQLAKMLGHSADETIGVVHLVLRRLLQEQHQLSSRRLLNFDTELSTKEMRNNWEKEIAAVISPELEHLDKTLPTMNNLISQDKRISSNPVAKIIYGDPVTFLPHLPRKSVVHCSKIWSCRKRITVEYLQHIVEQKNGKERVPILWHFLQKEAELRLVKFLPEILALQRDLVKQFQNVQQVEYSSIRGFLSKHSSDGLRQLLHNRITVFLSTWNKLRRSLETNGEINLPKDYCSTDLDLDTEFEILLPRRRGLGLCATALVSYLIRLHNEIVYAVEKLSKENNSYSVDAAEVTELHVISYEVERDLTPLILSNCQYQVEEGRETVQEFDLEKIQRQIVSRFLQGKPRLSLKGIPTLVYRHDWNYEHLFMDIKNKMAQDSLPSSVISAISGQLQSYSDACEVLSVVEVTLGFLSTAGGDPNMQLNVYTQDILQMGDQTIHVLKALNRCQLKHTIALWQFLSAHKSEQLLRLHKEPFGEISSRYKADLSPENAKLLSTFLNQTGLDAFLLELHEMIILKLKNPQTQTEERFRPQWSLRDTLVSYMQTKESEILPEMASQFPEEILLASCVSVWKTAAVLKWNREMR

`COc1ccc2c(c1)CCCN2C(=O)CCl` [KB02]: the Liganded result is “YES” in experiment [1]; “YES” in [2] (ZNF638 Res# 1023, uniprot Q14966); “YES” in [2] (ZNF638 Res# 1026, uniprot Q14966); “YES” in experiment [3] (NT5DC2 Res# 504, uniprot Q9H857); “YES” in [3] (NT5DC2 Res# 507, uniprot Q9H857); “YES” in [4]. The Liganded entry in experiment [5] (RNF213 Res# 1510, uniprot Q63HN8) is “YES”; in experiment [5] (RNF213 Res# 4258, uniprot Q63HN8), “YES”; in experiment [5] (RNF213 Res# 4407, uniprot Q63HN8), “YES”; in experiment [6], “YES”; on VPRBP Protein VPRBP (VPRBP Res# 69, uniprot Q9Y4B6), “YES”; at VPRBP Protein VPRBP (VPRBP Res# 967, uniprot Q9Y4B6) it was “YES”.
Take `O=C(CCl)Nc1cc(C(F)(F)F)cc(C(F)(F)F)c1` [KBO3]: the Liganded result was “YES” in [7] (GCN1L1 Res# 648, uniprot Q92616); “YES” in experiment [8] (RNF2 Res# 54, uniprot Q99496); “YES” in [9] (CTSC Res# 258, uniprot P53634). The “100 Max” value in [7] (uniprot Q92616) came to 28.59; in experiment [8] (uniprot Q99496) it was 18.1; in experiment [9] (uniprot P53634) it was 76.05. For the same compound, the 100 ave is on record as 25.61 in [7] (uniprot Q92616), 0.5 in experiment [8] (uniprot Q99496) and 76.05 in [9] (uniprot P53634). In addition, the results for the “500 Max” value in experiment [7] (uniprot Q92616), in experiment [8] (uniprot Q99496) and in [9] (uniprot P53634) were 80.3, 76.8 and 95.44, respectively. Further, the 500 ave was 78.745 in experiment [7] (uniprot Q92616), 76.8 in experiment [8] (uniprot Q99496) and 95.44 in [9] (uniprot P53634).
